In patent US20080039319A1, “Fungicidal Mixtures and Novel Triazolopyrimidines” (Basf Aktiengesellschaft, priority 2004, published 2008):

Assays:
[1] = tested on: Erysiphe [syn. Blumeria] graminis forma specialis. Tritici; assay: Use Example 5: activity against mildew of wheat caused by Erysiphe [syn. Blumeria] graminis forma specialis tritici, 3-day protective application; type: in vivo, Erysiphe graminis f. sp. tritici; conditions: individual active compound
Phytophthora infestans = conditions: in vivo
[2] = tested on: Pyrenophora [syn. Drechslera] teres; assay: Use Example 4: net blotch of barley caused by Pyrenophora teres, second test; type: in vivo; conditions: individual active compound
Alternaria solani [3] = assay: Use Example 6: activity against early blight of tomato caused by Alternaria solani (second test); type: in vivo; conditions: individual active compound
Plasmopara viticola = assay: Comparative Test 3: activity against Peronospora of grapevines caused by Plasmopara viticola; type: in vivo; conditions: individual active compound
Alternaria solani [4] = assay: Comparative Test 1: activity against early blight of tomato caused by Alternaria solani; type: in vivo; conditions: individual active compound
Botrytis cinerea = assay: Use Example 7: activity against gray mold on bell pepper leaves caused by Botrytis cinerea, protective application; type: in vivo; conditions: individual active compound
[5] = tested on: Pyrenophora [syn. Drechslera] teres; assay: Use Example 4: activity against net blotch of barley caused by Pyrenophora teres, 1-day protective application (first test); type: in vivo; conditions: individual active compound
Sphaerotheca fuliginea = assay: Use Example 8: activity against mildew on cucumber leaves caused by Sphaerotheca fuliginea, protective application; conditions: in vivo

CC(Cc1ccc(C(C)(C)C)cc1)CN1CC(C)OC(C)C1 [fenpropimorph (D-1), 4-[3-(4-tert-butylphenyl)-2-methylpropyl]-2,6-dimethylmorpholine]
Efficacy in % of the untreated control ([1]; 15 ppm in the spray liquor): 0% | Efficacy in % of the untreated control ([1]; 30 ppm in the spray liquor): 67%

N#Cc1sc2c(=O)c3ccccc3c(=O)c=2sc1C#N [dithianon (L-3), 5,10-dioxo-5,10-dihydronaphtho[2,3-b][1,4]dithiine-2,3-dicarbonitrile]
Efficacy in % of the untreated control (Phytophthora infestans): 0%

CC(C)NC(=O)N1CC(=O)N(c2cc(Cl)cc(Cl)c2)C1=O [iprodione (F-1), N-isopropyl-3-(3,5-dichlorophenyl)-2,4-dioxoimidazolidine-1-carboxamide]
Efficacy in % of the untreated control ([2]; 12.5 ppm in the spray liquor): 0% | Efficacy in % of the untreated control ([2]; 50 ppm in the spray liquor): 0% | Efficacy in % of the untreated control (Alternaria solani [3]; 12.5 ppm in the spray liquor): 0% | Efficacy in % of the untreated control (Alternaria solani [3]; 100 ppm in the spray liquor): 0%

CC1CCN(c2c(-c3c(F)cccc3Cl)c(Cl)nc3ncnn23)CC1 [(π)]
Efficacy in % of the untreated control (Plasmopara viticola; 5 ppm in the spray liquor): 5% | Efficacy in % of the untreated control (Plasmopara viticola; 10 ppm in the spray liquor): 19% | Efficacy in % of the untreated control (Phytophthora infestans): 0% | Efficacy in % of the untreated control (Alternaria solani [4]; 2.5 ppm in the spray liquor): 0% | Efficacy in % of the untreated control (Alternaria solani [4]; 5 ppm in the spray liquor): 21% | Efficacy in % of the untreated control (Alternaria solani [4]; 10 ppm in the spray liquor): 44%

S1SSSSSSS1 [sulfur (M-1), sulfur]
Efficacy in % of the untreated control (Botrytis cinerea; 0.3125 ppm in the spray liquor): 22% | Efficacy in % of the untreated control (Botrytis cinerea; 0.625 ppm in the spray liquor): 56%

N#Cc1c(Cl)c(Cl)c(Cl)c(C#N)c1Cl [chlorothalonil (Q-1), 2,4,5,6-tetrachloroisophthalonitrile]
Efficacy in % of the untreated control ([2]; 12.5 ppm in the spray liquor): 0% | Efficacy in % of the untreated control ([2]; 50 ppm in the spray liquor): 0% | Efficacy in % of the untreated control ([2]; 100 ppm in the spray liquor): 0%

O=C(Nc1ccccc1-c1ccc(Cl)cc1)c1cccnc1Cl [boscalid (L-2), 2-chloro-N-(4′-chlorobiphenyl-2-yl)nicotinamide]
Efficacy in % of the untreated control (Phytophthora infestans): 0%

COC(=O)N(OC)c1ccccc1COc1ccn(-c2ccc(Cl)cc2)n1 [pyraclostrobin (B-1), methyl N-{2-[1-(4-chlorophenyl)-1H-pyrazol-3-yloxymethyl]phenyl}(N-methoxy)carbamate]
Efficacy in % of the untreated control (Alternaria solani [3]; 0.3125 ppm in the spray liquor): 22% | Efficacy in % of the untreated control (Alternaria solani [3]; 0.625 ppm in the spray liquor): 56%

CC(C)OC(=O)c1cc(C(=O)OC(C)C)cc([N+](=O)[O-])c1 [nitrophthal-isopropyl (N-1), diisopropyl 5-nitroisophthalate]
Efficacy in % of the untreated control (Botrytis cinerea; 12.5 ppm in the spray liquor): 0% | Efficacy in % of the untreated control (Botrytis cinerea; 100 ppm in the spray liquor): 33%

COCC(=O)N(c1c(C)cccc1C)C(C)C(=O)OC (racemic) [metalaxyl (C-1), methyl N-(methoxyacetyl)-N-(2,6-xylyl)-DL-alaninate]
Efficacy in % of the untreated control (Alternaria solani [4]; 6.25 ppm in the spray liquor): 0% | Efficacy in % of the untreated control (Alternaria solani [4]; 50 ppm in the spray liquor): 0%

manganese ethylenebis(dithiocarbamate) zinc complex [mancozeb (K-1)]
Efficacy in % of the untreated control ([2]; 6.3 ppm in the spray liquor): 0% | Efficacy in % of the untreated control ([2]; 12.5 ppm in the spray liquor): 0% | Efficacy in % of the untreated control ([2]; 50 ppm in the spray liquor): 0%

zinc ammoniate ethylenebis(dithiocarbamate) [metiram (K-2)]
Efficacy in % of the untreated control ([2]; 12.5 ppm in the spray liquor): 0% | Efficacy in % of the untreated control ([2]; 50 ppm in the spray liquor): 0% | Efficacy in % of the untreated control ([2]; 100 ppm in the spray liquor): 0%

COC(=O)NC(=S)Nc1ccccc1NC(=S)NC(=O)OC [thiophanate-methyl (L-4), dimethyl 1,2-phenylenebis(iminocarbonothioyl)bis(carbamate)]
Efficacy in % of the untreated control ([2]; 6.3 ppm in the spray liquor): 0% | Efficacy in % of the untreated control ([2]; 100 ppm in the spray liquor): 0% | Efficacy in % of the untreated control (Alternaria solani [3]; 100 ppm in the spray liquor): 0%

COc1ccc(C(=CC(=O)N2CCOCC2)c2ccc(Cl)cc2)cc1OC [dimethomorph (G-1), 3-(4-chlorophenyl)-3-(3,4-dimethoxyphenyl)-1-morpholin4-ylpropenone]
Efficacy in % of the untreated control (Alternaria solani [4]; 3.125 ppm in the spray liquor): 0% | Efficacy in % of the untreated control (Alternaria solani [4]; 12.5 ppm in the spray liquor): 0% | Efficacy in % of the untreated control (Alternaria solani [4]; 25 ppm in the spray liquor): 0% | Efficacy in % of the untreated control (Alternaria solani [4]; 50 ppm in the spray liquor): 0%

CC1(C)CCC(Cc2ccc(Cl)cc2)C1(O)Cn1cncn1 (stereo not shown) [metconazole (A-3), 5-(4-chlorobenzyl)-2,2-dimethyl-1-[1,2,4]triazol-1-ylmethylcyclopentanol]
Efficacy in % of the untreated control ([5]; 1.25 ppm in the spray liquor): 0% | Efficacy in % of the untreated control ([5]; 2.5 ppm in the spray liquor): 0% | Efficacy in % of the untreated control ([5]; 5 ppm in the spray liquor): 0%

N#Cc1c[nH]cc1-c1cccc2c1OC(F)(F)O2 [fludioxonil (O-1), 4-(2,2-difluorobenzo[1,3]dioxol-4-yl)-1H-pyrrole-3-carbonitrile]
Efficacy in % of the untreated control (Sphaerotheca fuliginea): 56%

OC(Cn1cncn1)(c1ccc(F)cc1)c1ccccc1F (stereo not shown) [flutriafol (A-2), 1-(4-fluorophenyl)-1-(2-fluorophenyl)-2-[1,2,4]triazol-1-ylethanol]
Efficacy in % of the untreated control ([5]; 1.25 ppm in the spray liquor): 0% | Efficacy in % of the untreated control ([5]; 2.5 ppm in the spray liquor): 0% | Efficacy in % of the untreated control ([5]; 5 ppm in the spray liquor): 0%

O=C1C2CC=CCC2C(=O)N1SC(Cl)(Cl)Cl (stereo not shown) [captan (P-1), 2-trichloromethylsulfanyl-3a,4,7,7a-tetrahydroisoindole-1,3-dione]
Efficacy in % of the untreated control (Plasmopara viticola; 12.5 ppm in the spray liquor): 0% | Efficacy in % of the untreated control (Plasmopara viticola; 50 ppm in the spray liquor): 0% | Efficacy in % of the untreated control (Botrytis cinerea; 12.5 ppm in the spray liquor): 11% | Efficacy in % of the untreated control (Botrytis cinerea; 100 ppm in the spray liquor): 56%

Fc1ccc([C@]2(Cn3cncn3)O[C@H]2c2ccccc2Cl)cc1 (racemic) [epoxiconazole (A-1), (2RS,3SR)-1-[3-(2-chlorophenyl)-2,3-epoxy-2-(4-fluorophenyl)propyl]-1H-1,2,4-triazole]
Efficacy in % of the untreated control ([5]; 1.25 ppm in the spray liquor): 0% | Efficacy in % of the untreated control ([5]; 2.5 ppm in the spray liquor): 20% | Efficacy in % of the untreated control ([5]; 5 ppm in the spray liquor): 77%
